Legend:
MmRadA [1] = target: T1, MmRadA (Methanococcus maripaludis, UniProt P0CW58); experiment: Malachite Green phosphate release (ATPase); type: biochemical; conditions: 5 mM ATP, 10 mM MgCl2, pH 7.4, 100 mM KCl, poly-(dT)36 ssDNA; mere turnover
T1 construct: gene radA; full open reading frame in pET28a (NcoI/XhoI), expressed in E. coli BL21 Rosetta2 (DE3); no tag mentioned; helical filament, nucleotide buried between adjacent monomers; P-loop Gly105-Thr112, His280, Asp302

MmRadA [2] = target: T1, MmRadA; experiment: X-ray crystallography, […]-2.[…] A; type: binding; conditions: Mg2+, pH 7.9; 0.4 M NH4Cl (3ewa), 0.4 M KCl (3ew9) or 0.1 M NH4Cl (3etl); ATPase site at the monomer interface

T1 sequence (P0CW58 whole entry): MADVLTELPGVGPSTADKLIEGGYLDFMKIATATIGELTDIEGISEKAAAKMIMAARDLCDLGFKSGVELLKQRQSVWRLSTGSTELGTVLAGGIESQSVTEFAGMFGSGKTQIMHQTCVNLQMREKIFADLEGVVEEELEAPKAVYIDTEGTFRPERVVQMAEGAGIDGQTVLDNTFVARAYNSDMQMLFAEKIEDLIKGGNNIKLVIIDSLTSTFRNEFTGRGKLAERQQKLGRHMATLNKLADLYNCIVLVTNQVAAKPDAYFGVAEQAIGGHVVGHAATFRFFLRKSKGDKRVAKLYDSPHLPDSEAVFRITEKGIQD

Row | Structure (SMILES) | Malachite Green phosphate release (ATPase) (MmRadA [1]) | X-ray crystallography, 2.0-2.4 A (MmRadA [2])
1 | Nc1ncnc2c1ncn2[C@@H]1O[C@H](COP(=O)(O)OP(=O)(O)OP(=O)(O)O)[C@@H](O)[C@H]1O [ATP] | the M. maripaludis protein also actively catalyzed ATP hydrolysis in the presence of potassium | 
2 | Nc1ncnc2c1ncn2[C@@H]1O[C@H](COP(=O)(O)OP(=O)(O)NP(=O)(O)O)[C@@H](O)[C@H]1O [AMPPNP] |  | The nonhydrolyzable ATP analogue AMPPNP is buried between the MmRadA monomers as expected.
